Test results as given in patent publication US11702418B2, “SOS1 inhibitors” (priority 2019, dated 2023).
Where a name gives a salt, the structure may show the parent alone. Read-outs that look alike come from different tables or passages of the source.

Tests used:
[1] = biological target: recombinant human SOS1 polypeptide (amino acids 560-1049) (Homo sapiens (Human), UniProt Q07889); test: biochemical; format: binding; conditions: read-out: Ki, Inhibition of Labeled Tracer Binding to SOS1
[2] = tested on: pERK in MKN1 cells; test: cells; format: cell-based
[3] = HTRF displacement, Cy5 labelled tracer, Morrison equation for competitive binding
[4] = Homo sapiens, MKN-1, pERK inhibition, In-Cell Western, MKN1 or H358 cells (Table 24 does not say which), 0.5-1 hour incubation, read-out: IC50
[5] = pERK inhibition, In-Cell Western, MKN1 or H358 cells (Table 24 does not say which), 0.5-1 hour incubation, read-out: IC50

Chain of recombinant human SOS1 polypeptide (amino acids 560-1049) (Q07889 560-1049): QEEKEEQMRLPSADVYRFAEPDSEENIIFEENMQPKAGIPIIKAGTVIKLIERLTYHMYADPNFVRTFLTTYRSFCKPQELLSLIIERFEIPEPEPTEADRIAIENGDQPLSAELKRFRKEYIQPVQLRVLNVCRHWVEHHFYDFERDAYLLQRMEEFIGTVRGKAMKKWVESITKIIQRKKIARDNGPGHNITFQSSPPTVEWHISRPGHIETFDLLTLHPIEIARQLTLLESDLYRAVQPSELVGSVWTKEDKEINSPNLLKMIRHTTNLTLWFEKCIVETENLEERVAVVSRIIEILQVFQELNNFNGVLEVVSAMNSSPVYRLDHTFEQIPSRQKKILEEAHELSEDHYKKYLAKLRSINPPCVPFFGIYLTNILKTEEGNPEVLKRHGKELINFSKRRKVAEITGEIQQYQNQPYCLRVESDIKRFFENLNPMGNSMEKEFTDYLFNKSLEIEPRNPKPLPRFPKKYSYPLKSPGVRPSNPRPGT

Row | Compound | Ki [1, 3] [nM] | IC50 [2, 4] [nM] | IC50 [2, 5] [nM] | Ki [1] [nM] | IC50 ([2]; Homo sapiens, MKN-1) [nM]
1 | Cc1c([C@@H](C)Nc2nnc(C)c3ccc(N4CCNCC(F)(F)C4)cc23)cccc1C(F)(F)F [Example 10-5, (R)-7-(6,6-difluoro-1,4-diazepan-1-yl)-4-methyl-N-(1-(2-methyl-3-(trifluoromethyl)phenyl)ethyl)phthalazin-1-amine] | < 0.01 | 108 |  |  | 
2 | Cc1c([C@@H](C)Nc2nnc(C)c3ccc(N4CCN5C(=O)CC[C@@H]5C4)cc23)cccc1C(F)(F)F [Example 10-12, (R)-2-(1-methyl-4-(((R)-1-(2-methyl-3-(trifluoromethyl)phenyl)ethyl)amino)phthalazin-6-yl)hexahydropyrrolo[1,2-a]pyrazin-6(2H)-one] | 0.4 | 29 |  |  | 
3 | Cc1c([C@@H](C)Nc2nnc(C)c3ccc(N4CCN5C(=O)CC[C@H]5C4)cc23)cccc1C(F)(F)F [Example 10-13, (S)-2-(1-methyl-4-(((R)-1-(2-methyl-3-(trifluoromethyl)phenyl)ethyl)amino)phthalazin-6-yl)hexahydropyrrolo[1,2-a]pyrazin-6(2H)-one] | 0.49 | 39 |  |  | 
4 | Cc1c([C@@H](C)Nc2nnc(C)c3ccc(-n4cc5c(n4)CNC5)cc23)cccc1C(F)(F)F [Example 10-16, (R)-7-(5,6-dihydropyrrolo[3,4-c]pyrazol-2(4H)-yl)-4-methyl-N-(1-(2-methyl-3-(trifluoromethyl)phenyl)ethyl)phthalazin-1-amine] | 7.75 | 325 |  |  | 
5 | Cc1c([C@@H](C)Nc2nnc(C)c3ccc(N4CCC5(CCCN5)CC4)cc23)cccc1C(F)(F)F [Example 10-18, (R)-4-methyl-N-(1-(2-methyl-3-(trifluoromethyl)phenyl)ethyl)-7-(1,8-diazaspiro[4.5]decan-8-yl)phthalazin-1-amine] | 1.41 |  | 291 |  | 
6 | Cc1c([C@@H](C)Nc2nnc(C)c3ccc(N4CCC5(CCCN5C)CC4)cc23)cccc1C(F)(F)F [Example 10-19, (R)-4-methyl-N-(1-(2-methyl-3-(trifluoromethyl)phenyl)ethyl)-7-(1-methyl-1,8-diazaspiro[4.5]decan-8-yl)phthalazin-1-amine] | 0.28 | 69 |  |  | 
7 | Cc1c([C@@H](C)Nc2nnc(C)c3ccc(N4CCNCC(F)C4)cc23)cccc1C(F)(F)F (stereo partly drawn) [Example 10-22, 7-(6-fluoro-1,4-diazepan-1-yl)-4-methyl-N-((R)-1-(2-methyl-3-(trifluoromethyl)phenyl)ethyl)phthalazin-1-amine] | 0.45 | 38 |  |  | 
8 | Cc1c([C@@H](C)Nc2nnc(C)c3ccc(N4CCS(=O)(=O)CC4)cc23)cccc1C(F)(F)F [Example 10-23, (R)-4-(1-methyl-4-((1-(2-methyl-3-(trifluoromethyl)phenyl)ethyl)amino)phthalazin-6-yl)thiomorpholine 1,1-dioxide] | 0.42 | 19 |  |  | 
9 | Cc1c([C@@H](C)Nc2nnc(C)c3ccc(OC[C@@H]4CCCN4C)cc23)cccc1C(F)(F)F [Example 10-24, 4-methyl-N-((R)-1-(2-methyl-3-(trifluoromethyl)phenyl)ethyl)-7-(((S)-1-methylpyrrolidin-2-yl)methoxy)phthalazin-1-amine hydrochloride salt] |  |  |  | 1.34 | 69
10 | Cc1c([C@@H](C)Nc2nnc(C)c3ccc(OC[C@H]4CCCN4C)cc23)cccc1C(F)(F)F [Example 10-25, 4-methyl-N-((R)-1-(2-methyl-3-(trifluoromethyl)phenyl)ethyl)-7-(((R)-1-methylpyrrolidin-2-yl)methoxy)phthalazin-1-amine hydrochloride salt] |  |  |  | 1.47 | 103
11 | Cc1c([C@@H](C)Nc2nnc(C)c3ccc(N4CC[C@@H](N(C)C)C4)cc23)cccc1C(F)(F)F [Example 10-26, 7-((R)-3-(dimethylamino)pyrrolidin-1-yl)-4-methyl-N-((R)-1-(2-methyl-3-(trifluoromethyl)phenyl)ethyl)phthalazin-1-amine hydrochloride salt] |  |  |  | 0.47 | 164
12 | Cc1c([C@@H](C)Nc2nnc(C)c3ccc(N4C5CCC4CN(C)C5)cc23)cccc1C(F)(F)F [Example 10-28, 4-methyl-N-((R)-1-(2-methyl-3-(trifluoromethyl)phenyl)ethyl)-7-(3-methyl-3,8-diazabicyclo[3.2.1]octan-8-yl)phthalazin-1-amine hydrochloride salt] |  |  |  | 0.45 | 161
13 | Cc1c([C@@H](C)Nc2nnc(C)c3ccc(N4CC5CCC(C4)N5C)cc23)cccc1C(F)(F)F [Example 10-29, 4-methyl-N-((R)-1-(2-methyl-3-(trifluoromethyl)phenyl)ethyl)-7-(8-methyl-3,8-diazabicyclo[3.2.1]octan-3-yl)phthalazin-1-amine hydrochloride salt] |  |  |  | 0.39 | 70
14 | Cc1c([C@@H](C)Nc2nnc(C)c3ccc(N4CCC(N5CCC5)CC4)cc23)cccc1C(F)(F)F [Example 10-30, (R)-7-(4-(azetidin-1-yl)piperidin-1-yl)-4-methyl-N-(1-(2-methyl-3-(trifluoromethyl)phenyl)ethyl)phthalazin-1-amine hydrochloride salt] |  |  |  | 0.41 | 48
15 | Cc1c([C@@H](C)Nc2nnc(C)c3ccc(N4C[C@@H]5CC[C@H]4CN5C)cc23)cccc1C(F)(F)F [Example 10-31, 4-methyl-N-((R)-1-(2-methyl-3-(trifluoromethyl)phenyl)ethyl)-7-((1S,4S)-5-methyl-2,5-diazabicyclo[2.2.2]octan-2-yl)phthalazin-1-amine] | 0.35 | 3580 |  |  | 
16 | Cc1c([C@@H](C)Nc2nnc(C)c3ccc(N4C[C@H]5CC[C@@H]4CN5C)cc23)cccc1C(F)(F)F [Example 10-32, 4-methyl-N-((R)-1-(2-methyl-3-(trifluoromethyl)phenyl)ethyl)-7-((1R,4R)-5-methyl-2,5-diazabicyclo[2.2.2]octan-2-yl)phthalazin-1-amine] | 0.2 | 28 |  |  | 
17 | Cc1c([C@@H](C)Nc2nnc(C)c3ccc(N4CCN(C)C5(CC5)C4)cc23)cccc1C(F)(F)F [Example 10-33, (R)-4-methyl-N-(1-(2-methyl-3-(trifluoromethyl)phenyl)ethyl)-7-(4-methyl-4,7-diazaspiro[2.5]octan-7-yl)phthalazin-1-amine] | 0.69 | 275 |  |  | 
18 | Cc1c([C@@H](C)Nc2nnc(C)c3ccc(N4CCNC5(CC5)C4)cc23)cccc1C(F)(F)F [Example 10-34, (R)-4-methyl-N-(1-(2-methyl-3-(trifluoromethyl)phenyl)ethyl)-7-(4,7-diazaspiro[2.5]octan-7-yl)phthalazin-1-amine] | 0.56 | 136 |  |  | 
19 | Cc1c([C@@H](C)Nc2nnc(C)c3ccc(N4CCC5(CCCN5)CC4)cc23)cccc1C(F)(F)F [Example 10-35, (R)-4-methyl-N-(1-(2-methyl-3-(trifluoromethyl)phenyl)ethyl)-7-(1,8-diazaspiro[4.5]decan-8-yl)phthalazin-1-amine] | 0.31 |  | 1000 |  | 
20 | Cc1c([C@@H](C)Nc2nnc(C)c3ccc(N4CCC5(CCNC5)CC4)cc23)cccc1C(F)(F)F [Example 10-36, (R)-4-methyl-N-(1-(2-methyl-3-(trifluoromethyl)phenyl)ethyl)-7-(2,8-diazaspiro[4.5]decan-8-yl)phthalazin-1-amine hydrochloride salt] |  |  |  | 0.23 | 79
